# According to ChEMBL document CHEMBL1124256, “Enantiomeric effects of homologues of disoxaril on the inhibitory activity against human rhinovirus-14” (1988):
# Test system: Human rhinovirus sp.
# Assay: In vitro minimum inhibitory concentration against human rhinovirus-14 (HRV-14)
# Assay type: functional
row,Structure (SMILES),MIC [µg/mL]
1,Cc1cc(CCCCCCCOc2ccc(C3=N[C@@H](C)CO3)cc2)on1,0.02
2,CC[C@@H]1COC(c2ccc(OCCCCCCCc3cc(C)no3)cc2)=N1,0.06
3,CCCC[C@H]1COC(c2ccc(OCCCCCCCc3cc(C)no3)cc2)=N1,0.06
4,CCC[C@H]1COC(c2ccc(OCCCCCCCc3cc(C)no3)cc2)=N1,0.01
5,Cc1cc(CCCCCCCOc2ccc(C3=N[C@H](C(C)C)CO3)cc2)on1,0.13
6,CCCC[C@@H]1COC(c2ccc(OCCCCCCCc3cc(C)no3)cc2)=N1,0.52
7,Cc1cc(CCCCCCCOc2ccc(C3=N[C@H](C)CO3)cc2)on1,0.2
8,Cc1cc(CCCCCCCOc2ccc(C3=NC(C)(C)CO3)cc2)on1,0.03
9,Cc1cc(CCCCCCCOc2ccc(C3=NCCO3)cc2)on1 [DISOXARIL],0.14

# Further molecules by falling MIC, results first:
row,MIC [µg/mL],Structure (SMILES)
1,0.07,CCC[C@@H]1COC(c2ccc(OCCCCCCCc3cc(C)no3)cc2)=N1
2,0.03,Cc1cc(CCCCCCCOc2ccc(C3=N[C@@H](C(C)C)CO3)cc2)on1
3,0.03,Cc1cc(CCCCCCCOc2ccc(C3=NC(C)CO3)cc2)on1 (stereo not drawn)
4,0.01,CC[C@H]1COC(c2ccc(OCCCCCCCc3cc(C)no3)cc2)=N1
